From US20240239755A1, “SUBSTITUTED PYRIDAZINONES, SALTS OR N-OXIDES THEREOF AND THEIR USE AS HERBICIDALLY ACTIVE SUBSTANCES” (Bayer Aktiengesellschaft, priority 2021, published 2024)

Columns and labels:
Assay type in all cases: in vivo
[1] = test system: Echinochloa crus-galli (ECHCG); test: Herbicidal post-emergence action, 1280 g/ha (Table B3); settings: visual assessment after ca. 3 weeks vs untreated controls
From the text: Seeds of mono- and dicotyledonous weed plants were sown in plastic pots (double sowings with one species of mono- and one species of dicotyledonous weed plants per pot), in sandy loam, covered with soil and grown under controlled growth conditions. 2 to 3 weeks after sowing, the test plants were sprayed in the single-leaf stage. The compounds according to the invention, formulated in the form of wettable powders (WP) or as emulsifiable concentrates (EC), were sprayed onto the green plant parts as an aqueous suspension or as an emulsion, with the addition of 0.5% of an additive, at an application rate of 600 litres of water per hectare (converted). The test plants were placed in the greenhouse for ca. 3 weeks under optimum growth conditions, and then the effect of the preparations was assessed visually in comparison with untreated controls (herbicidal effect in percent (%): 100% effect=plants have died, 0% effect=as control plants). Tables B1 to B11 below, show the effects of selected compounds of the general formula (I) according to Table 1 on various harmful plants using an application rate corresponding to 1280 g/ha obtained by the experimental procedure mentioned above.

[2] = test system: Amaranthus retroflexus (AMARE); test: Herbicidal post-emergence action, 320 g/ha, AMARE; settings: visual grading after ca. 3 weeks
How it was run: (§1)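 Weeds grown in sandy loam were sprayed post-emergence at the single-leaf stage, 2–3 weeks after sowing. Compounds were formulated as WP or EC with 0.5% additive and applied at 320 g/ha in 600 L water/ha. After ~3 weeks in the greenhouse, damage was scored visually as % versus untreated controls (100% = dead).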

Lolium rigidum (LOLRI) [3] = test: Herbicidal post-emergence action, 1280 g/ha (Table B5); settings: visual assessment after ca. 3 weeks vs untreated controls
How it was run: (§2)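 Weeds grown in sandy loam under controlled conditions were sprayed post-emergence at the single-leaf stage, 2 to 3 weeks after sowing, with WP or EC formulations plus 0.5% additive at 600 L water/ha. Visual % damage versus untreated controls was scored after ca. 3 weeks in the greenhouse.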

Kochia scoparia (KCHSC) [4] = test: Herbicidal post-emergence action, 1280 g/ha (Table B4); settings: visual assessment after ca. 3 weeks vs untreated controls
How it was run: as §2

[5] = test system: Abutilon theophrasti (ABUTH); test: Herbicidal post-emergence action, 320 g/ha, ABUTH; settings: visual grading after ca. 3 weeks
How it was run: as §1

Kochia scoparia (KCHSC) [6] = test: Herbicidal pre-emergence action, 1280 g/ha (Table A4); settings: visual grading after ca. 3 weeks vs untreated controls
How it was run: (§3)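 Compounds were formulated as WP or EC and sprayed onto the covering soil of freshly sown pots (sandy loam) in 600 L water/ha with 0.5% additive. Pots were kept in a greenhouse, and damage was scored visually after ca. 3 weeks as % effect versus untreated controls (100% = dead).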

Stellaria media (STEME) [7] = test: Herbicidal post-emergence action, 1280 g/ha (Table B9); settings: visual assessment after ca. 3 weeks vs untreated controls
How it was run: as §2

Lolium rigidum (LOLRI) [8] = test: Herbicidal pre-emergence action, 1280 g/ha (Table A5); settings: visual grading after ca. 3 weeks vs untreated controls
How it was run: as §3

Stellaria media (STEME) [9] = test: Herbicidal pre-emergence action, 320 g/ha, STEME; settings: visual grading after ca. 3 weeks
How it was run: (§4)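 Weed seeds sown in sandy loam pots; WP or EC formulations applied pre-emergence to the covering soil surface at 320 g/ha with 0.5% additive in 600 L water/ha. Greenhouse growth; visual damage scored after ca. 3 weeks versus untreated controls (100% = plants died, 0% = as control).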

[10] = test system: Amaranthus retroflexus (AMARE); test: Herbicidal pre-emergence action, 320 g/ha, AMARE; settings: visual grading after ca. 3 weeks
How it was run: as §4

Lolium rigidum (LOLRI) [11] = test: Herbicidal pre-emergence action, 320 g/ha (Table C2); settings: visual grading after ca. 3 weeks vs untreated controls
How it was run: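 Applied pre-emergence to the surface of soil covering weed seeds sown in sandy loam, as WP or EC formulations in water with 0.5% additive at 600 L/ha. Greenhouse-grown; damage graded visually at ca. 3 weeks as percent of untreated controls (100% = plants died).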

[12] = test system: Matricaria inodora (MATIN); test: Herbicidal pre-emergence action, 320 g/ha (Table C3); settings: visual grading after ca. 3 weeks vs untreated controls
From the text: (§5) Seeds of mono- and dicotyledonous weed plants were sown in plastic pots (double sowings with one species of mono- and one species of dicotyledonous weed plants per pot), in sandy loam, and covered with soil. The compounds according to the invention, formulated in the form of wettable powders (WP) or as emulsifiable concentrates (EC), were applied to the surface of the covering soil as an aqueous suspension or as an emulsion, with the addition of 0.5% of an additive, at an application rate of 600 litres of water per hectare (converted). Following treatment, the pots were placed in a greenhouse and kept under optimum growth conditions for the test plants. The visual grading of the damage to the test plants was carried out after ca. 3 weeks in comparison to untreated controls (herbicidal effect in percent (%): 100% effect=plants have died, 0% effect=as control plants). Tables C1 to C6 below, show the effects of selected compounds of the general formula (I) according to Table 1 on various harmful plants using an application rate corresponding to 320 g/ha obtained by the experimental procedure mentioned above.

[13] = test system: Matricaria inodora (MATIN); test: Herbicidal post-emergence action, 1280 g/ha (Table B6); settings: visual assessment after ca. 3 weeks vs untreated controls
How it was run: as §2

Veronica persica (VERPE) [14] = test: Herbicidal post-emergence action, 1280 g/ha, VERPE; settings: visual grading vs untreated controls
How it was run: (§6)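 Pot-grown weeds in sandy loam sprayed post-emergence at the single-leaf stage, 2–3 weeks after sowing, with WP or EC formulations plus 0.5% additive in 600 L water/ha at 1280 g/ha. After ca. 3 weeks in the greenhouse, damage scored visually as % effect versus untreated controls (100% = plants dead).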

[15] = test system: Amaranthus retroflexus (AMARE); test: Herbicidal post-emergence action, 1280 g/ha, AMARE; settings: visual grading vs untreated controls
How it was run: as §6

Stellaria media (STEME) [16] = test: Herbicidal post-emergence action, 320 g/ha, STEME; settings: visual grading after ca. 3 weeks
How it was run: as §1

[17] = test system: Matricaria inodora (MATIN); test: Herbicidal pre-emergence action, 1280 g/ha (Table A6); settings: visual grading after ca. 3 weeks vs untreated controls
How it was run: as §3

Setaria viridis (SETVI) [18] = test: Herbicidal post-emergence action, 1280 g/ha (Table B8); settings: visual assessment after ca. 3 weeks vs untreated controls
How it was run: as §2

[19] = test system: Amaranthus retroflexus (AMARE); test: Herbicidal pre-emergence action, 1280 g/ha (Table A11); settings: visual grading after ca. 3 weeks vs untreated controls
How it was run: as §3

Stellaria media (STEME) [20] = test: Herbicidal pre-emergence action, 1280 g/ha (Table A9); settings: visual grading after ca. 3 weeks vs untreated controls
How it was run: as §3

Lolium rigidum (LOLRI) [21] = test: Herbicidal post-emergence action, 320 g/ha, LOLRI; settings: visual grading after ca. 3 weeks
How it was run: as §1

Veronica persica (VERPE) [22] = test: Herbicidal pre-emergence action, 1280 g/ha (Table A10); settings: visual grading after ca. 3 weeks vs untreated controls
From the text: as §5, with “A1” for “C1”, “A11” for “C6”, “and” for “using”, “1280” for “320”

[23] = test system: Abutilon theophrasti (ABUTH); test: Herbicidal post-emergence action, 1280 g/ha (Table B1); settings: visual assessment after ca. 3 weeks vs untreated controls
How it was run: as §2

Veronica persica (VERPE) [24] = test: Herbicidal post-emergence action, 320 g/ha, VERPE; settings: visual grading after ca. 3 weeks
How it was run: as §1

Kochia scoparia (KCHSC) [25] = test: Herbicidal pre-emergence action, 320 g/ha (Table C1); settings: visual grading after ca. 3 weeks vs untreated controls
From the text: as §5

[26] = test system: Abutilon theophrasti (ABUTH); test: Herbicidal pre-emergence action, 1280 g/ha (Table A1); settings: visual grading after ca. 3 weeks vs untreated controls
How it was run: as §3

Poa annua (POAAN) [27] = test: Herbicidal pre-emergence action, 1280 g/ha (Table A7); settings: visual grading after ca. 3 weeks vs untreated controls
How it was run: as §3

Setaria viridis (SETVI) [28] = test: Herbicidal pre-emergence action, 1280 g/ha (Table A8); settings: visual grading after ca. 3 weeks vs untreated controls
How it was run: as §3

Kochia scoparia (KCHSC) [29] = test: Herbicidal post-emergence action, 320 g/ha, KCHSC; settings: visual grading after ca. 3 weeks
How it was run: as §1

Poa annua (POAAN) [30] = test: Herbicidal pre-emergence action, 320 g/ha, POAAN; settings: visual grading after ca. 3 weeks
From the text: as §5, with “plants).” for “plants). Tables C1 to C6 below, show the effects of selected compounds of the general formula (I) according to Table 1 on various harmful plants using an application rate corresponding to 320 g/ha obtained by the experimental procedure mentioned above.”
Tables C1 to C6 below, show the effects of selected compounds of the general formula (I) according to Table 1 on various harmful plants using an application rate corresponding to 320 g/ha obtained by the experimental procedure mentioned above.

Row | Compound | herbicidal effect AMARE [2] | herbicidal effect LOLRI (Lolium rigidum (LOLRI) [3]) | herbicidal effect KCHSC (Kochia scoparia (KCHSC) [4]) | herbicidal effect ABUTH [5] | herbicidal effect KCHSC (Kochia scoparia (KCHSC) [6]) | herbicidal effect STEME (Stellaria media (STEME) [7]) | herbicidal effect LOLRI (Lolium rigidum (LOLRI) [8]) | herbicidal effect STEME (Stellaria media (STEME) [9]) | herbicidal effect AMARE [10] | herbicidal effect MATIN [13] | herbicidal effect VERPE (Veronica persica (VERPE) [14]) | herbicidal effect AMARE [15] | herbicidal effect STEME (Stellaria media (STEME) [16]) | herbicidal effect MATIN [17] | herbicidal effect AMARE [19] | herbicidal effect STEME (Stellaria media (STEME) [20]) | herbicidal effect LOLRI (Lolium rigidum (LOLRI) [21]) | herbicidal effect ABUTH [23] | herbicidal effect KCHSC (Kochia scoparia (KCHSC) [25]) | further results
1 | CC(=O)Oc1c(C)nn(C)c(=O)c1Oc1ccccc1C(F)(F)F [Example I-030] | 90% | 90% | 90% | 90% | 90% | 100% | 100% | 100% | 90% | 90% | 90% | 90% | 90% | 100% | 100% | 100% | 90% | 100% | – | herbicidal effect ECHCG [1]: 90%; herbicidal effect LOLRI (Lolium rigidum (LOLRI) [11]): 90%; herbicidal effect MATIN [12]: 100%; herbicidal effect SETVI (Setaria viridis (SETVI) [18]): 90%; herbicidal effect VERPE (Veronica persica (VERPE) [22]): 90%
2 | Cc1nn(C)c(=O)c(Oc2cc(F)c(F)cc2C2CC2)c1OC(=O)C(C)C [Example I-102] | 90% | 90% | 100% | – | 90% | 100% | 90% | 90% | – | 100% | 90% | 100% | 90% | 100% | 100% | 100% | – | 100% | 90% | herbicidal effect VERPE (Veronica persica (VERPE) [24]): 90%
3 | CCOC(=O)Oc1c(C)nn(C)c(=O)c1Oc1ccccc1C1CC1 [Example I-012] | – | 100% | 100% | 100% | 100% | 100% | 100% | 90% | 100% | 100% | 90% | 90% | 100% | 90% | 100% | 100% | 100% | 100% | – | herbicidal effect ABUTH [26]: 100%; herbicidal effect POAAN (Poa annua (POAAN) [27]): 90%; herbicidal effect SETVI (Setaria viridis (SETVI) [28]): 100%; herbicidal effect KCHSC (Kochia scoparia (KCHSC) [29]): 100%; herbicidal effect POAAN (Poa annua (POAAN) [30]): 90%
4 | Cc1nn(C)c(=O)c(Oc2ccc(Cl)cc2)c1O [Example I-002] | – | – | – | – | 90% | – | – | – | – | – | – | – | – | – | – | – | – | – | 90% | –
